Results published in PubChem BioAssay (NCI).
Several values for one entry are separate records, joined by “and”; a condition that tells them apart may be missing. Identical values can stand only once.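 48-hour exposure; five concentrations; linearly interpolated endpoints. GI50: concentration for 50% inhibition of growth. TGI denotes the concentration required for complete inhibition of growth.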 Starred links: 1 amine or outer side, 2 acyl side, 3 side chain; linkers in the order of their positions; H or OH if unused. Positions of bridges follow the written chain, without caps; N, C: chain ends. Non-standard residues stand in square brackets, D forms with d. Residues, ends and D or L forms follow the SMILES beside them. Chains are numbered I, II in the order given. Actinocin(9to1) = Cc1c2oc3c(C)ccc(C(=O)[*:1])c3nc-2c(C(=O)[*:2])c(N)c1=O; NMeY = CN[CH](Cc1ccc(O)cc1)C(=O)O; Sar = CNCC(=O)O

What was measured:
Test in all cases: NCI-60 cell line screen, 48 h
MCF7 breast = system: MCF7 breast
SK-OV-3 ovarian = system: SK-OV-3 ovarian
K-562 leukemia = system: K-562 leukemia
MALME-3M melanoma = system: MALME-3M melanoma
UO-31 renal = system: UO-31 renal
TK-10 renal = system: TK-10 renal
BT-549 breast = system: BT-549 breast
SF-268 CNS = system: SF-268 CNS
HS 578T breast = system: HS 578T breast
HL-60(TB) leukemia = system: HL-60(TB) leukemia

| Structure (SMILES) | TGI (MCF7 breast) [µM] | TGI (SK-OV-3 ovarian) [µM] | TGI (K-562 leukemia) [µM] | TGI (MALME-3M melanoma) | TGI (UO-31 renal) | TGI (TK-10 renal) [µM] | TGI (BT-549 breast) | TGI (SF-268 CNS) [µM] | TGI (HS 578T breast) | TGI (HL-60(TB) leukemia) [µM] | GI50 (MCF7 breast) [nM] | GI50 (SK-OV-3 ovarian) | GI50 (K-562 leukemia) | GI50 (UO-31 renal) | GI50 (TK-10 renal) [nM] | GI50 (BT-549 breast) [µM] | GI50 (SF-268 CNS) [µM] | GI50 (HS 578T breast) [µM] | GI50 (HL-60(TB) leukemia) [µM] |
| --- | --- | --- | --- | --- | --- | --- | --- | --- | --- | --- | --- | --- | --- | --- | --- | --- | --- | --- | --- |
| CC(=O)OC(OC(C)=O)c1ccc2ccc3cccc4ccc1c2c34 | 79.1 | 53.4 | 96.2 | 54.7 µM | 44.6 µM | 21.4 | 53.6 µM | 91.7 | 36.8 µM | > 100 | – | – | – | – | – | – | – | – | – |
| CC1=C(C)CC2C(=O)N(c3cc(C(C)(C)C)ccc3C(C)(C)C)C(=O)C2C1 (stereo not given) | 17.2 | > 100 | > 100 | 16.4 µM | > 100 µM | > 100 | > 100 µM | 24.6 | 56.8 µM | > 100 | – | – | – | – | – | – | – | – | – |
| Cc1c2oc3c(C)ccc(C(=O)NC4C(=O)NC(C(C)C)C(=O)N5CCCC5C(=O)N(C)CC(=O)N(C)C(Cc5ccc(O)cc5)C(=O)OC4C)c3nc-2c(C(=O)NC2C(=O)NC(C(C)C)C(=O)N3CCCC3C(=O)N(C)CC(=O)N(C)C(Cc3ccc(O)cc3)C(=O)OC2C)c(N)c1=O (stereo not given) (I: TVP[Sar][NMeY] / II: TVP[Sar][NMeY]; ester I:1-I:C, II:1-II:C; linker I:N-II:N via Actinocin(9to1); configuration not given here) | > 1 | > 1 | > 1 | 0.273 µM and 0.156 µM | > 1 µM and 0.459 µM | > 1 | 0.213 µM and 0.0733 µM | > 1 | 0.0521 µM and 0.0624 µM | 0.0947 | 3.29 | 160 nM and 75 nM | 3.38 nM and 0.595 nM | > 726 nM and 87.4 nM | 117 | – | – | – | – |
| NS(=O)(=O)c1ccc(/C=C/c2ccc(O)c(O)c2)cc1 | 51.9 | 48.8 | > 100 | > 100 µM | 35 µM | > 100 | 27.1 µM | 47.3 | 92.8 µM | > 100 | – | – | 35300 nM | – | – | 4.13 | 18.2 | 25.6 | 16.3 |
| O=c1[nH]nnc2c1sc1ncccc12 | > 100 | > 100 | > 100 | > 100 µM | > 100 µM | > 100 | > 100 µM | > 100 | > 100 µM | > 100 | – | – | – | – | – | – | – | – | – |
| Nc1c(C(=O)O)nnc2ccc(Cl)cc12 | > 100 | > 100 | > 100 | > 100 µM | > 100 µM | > 100 | > 100 µM | > 100 | > 100 µM | > 100 | – | – | – | – | – | – | – | – | – |
| CC1CC(OP(=O)(OCc2ccccc2)OCc2ccccc2)[C@@H](OCc2ccccc2)C(OCc2ccccc2)C1OCc1ccccc1 (stereo not given in full) | > 100 | > 100 | > 100 | > 100 µM | > 100 µM | > 100 | > 100 µM | > 100 | > 100 µM | > 100 | – | – | – | – | – | – | – | – | – |
| COc1cc(OC)c2nc(C)c(CCCl)c(Cl)c2c1 | > 100 | > 100 | > 100 | > 100 µM | > 100 µM | > 100 | > 100 µM | > 100 | > 100 µM | > 100 | – | – | – | – | – | – | – | – | – |
| CCOC1(OCC)C2C=CC1C(COS(=O)(=O)c1ccc(C)cc1)C2COS(=O)(=O)c1ccc(C)cc1 (stereo not given) | > 100 | > 100 | > 100 | 77.1 µM | > 100 µM | > 100 | > 100 µM | > 100 | > 100 µM | 42.4 | – | – | – | – | – | – | – | – | – |
| Brc1ccc2[nH]cc(-c3csc(-c4c[nH]c5ccccc45)n3)c2c1 | > 100 | 20.7 | > 20.8 | 8.21 µM | 11.3 µM | 12 | 22.7 µM | 8.91 | > 47.9 µM | 14.2 | – | – | – | – | – | – | – | – | – |
| O=S(=O)(O)CCCc1cccc2ccccc12 | > 100 | > 100 | > 100 | > 100 µM | > 100 µM | > 100 | > 100 µM | > 100 | > 100 µM | > 100 | – | – | – | – | – | – | – | – | – |
| COc1cc(C2c3cc4c(cc3OC(N3CCCCC3)C2C)OCO4)cc(OC)c1O (stereo not given) | > 43 | 19.9 | > 100 | 16.8 µM | 34.8 µM | 38.5 | 90.5 µM | > 53.8 | 31.8 µM | 15.4 | – | – | – | – | – | – | – | – | – |
| N#Cc1n[nH]n(-c2ccc(Br)cc2)c1=O | > 100 | > 100 | > 100 | > 100 µM | > 100 µM | > 100 | > 100 µM | > 100 | > 100 µM | > 100 | – | – | – | – | – | – | – | – | – |
| O=c1oc2ccc3ccccc3c2cc1-c1nc2ccccc2s1 | > 24.4 | > 100 | > 77.6 | > 100 µM | > 100 µM | > 100 | > 100 µM | > 100 | > 100 µM | > 100 | – | – | – | – | – | – | – | – | – |
| O=C1C=CC(=O)c2c1ccc1c3ccccc3n(CCCCCn3c4ccccc4c4ccc5c(c43)C(=O)C=CC5=O)c21 | 43.3 | > 100 | 4.89 | 31.9 µM | 16.4 µM | 26.8 | 82 µM | 32.7 | > 78.7 µM | 3.23 | – | – | – | – | – | – | – | – | – |
| COc1cc(OC)cc(Oc2nc3ccccc3nc2C(F)(F)F)c1 | > 100 | > 100 | > 100 | > 100 µM | > 100 µM | > 100 | > 100 µM | > 100 | > 100 µM | > 100 | – | – | – | – | – | – | – | – | – |
